According to US5877165A, “Boronated porhyrins and methods for their use” (priority 1997, dated 1999):
Where “and” joins values, the source holds several entries; their conditions need not be identical. Equal entries are not always repeated. Where two headings read alike, the source gives them in different places.

Legend:
[1] = Toxicity testing of NiTCP, MnTCP and CuTCP in normal mice (Example 13, Table 3); type: in vivo, BALB/c mice; settings: 4 days after last of 6 ip injections
Method: (§1) Levels of glucose [GLU], blood urea nitrogen [BUN], blood creatinine [BCR], alanine transaminase [ALT], aspartate transaminase [AST], alkaline phosphatase [ALP], total protein [TPR], albumin [ALB], and creatine phosphokinase [CPK] were determined in blood plasma using a Cobas Fara II microanalysis system. Blood platelets [PLT] and white blood cells [WBC] were counted using a Serono-Baker System 9000 automated hematology microanalyzer.
Compounds prepared as in Example 1B and 1C were formulated with 6% Cremophor EL [CRM] and 12% propylene glycol [PrG] in saline. Total doses of MnTCP and CuTCP of 174 and 223 μg/g body weight, respectively, were administered to normal BALB/c mice. Each mouse was given 6 intraperitoneal [ip] injections over a period of 32 hours. Mice were euthanized 4 days after the last injection and chemical, enzymatic and hematological analyses of their blood were compared to those of similar mice given NiTCP at a dose of 252 μg/g body weight.

[2] = Hematological, enzymatic and chemical blood analyses and weight change, mice with KHJJ mammary carcinomas (Examples 4-7, Table 1); type: in vivo, BALB/c mice; settings: NiTCP 160 or BPA 900 μg/gbw; 6-78 hr
Method: Female BALB/c mice (Taconic Farms, Germantown, N.Y.) (20-25 g) were implanted with either KHJJ or EMT-6 tumors. For KHJJ tumors, 1-3 mm^3 tumor fragments were implanted subcutaneously (s.c.) in the dorsal thorax of each mouse using an 18-gauge trocar. For EMT-6 tumors, 2.5×10^5 cells were implanted similarly using a 27-gauge needle. EMT-6 tumor cells were grown alternately in vivo and in vitro. Single-cell suspensions were prepared from mouse-grown tumors by trypsinization. These were grown in cell culture for several passages and then were frozen in 10% DMSO and stored in liquid nitrogen. Prior to implantation in mice, the cells were thawed and grown in tissue culture in Alpha-MEM with 10% FBS for several passages. […]
as §1, with “microanalyzer. […]” for “microanalyzer.”

[3] = Boron biodistribution, mice with KHJJ mammary carcinomas (Examples 4-7, Table 1); type: in vivo, BALB/c mice; settings: mouse, ip, 900 mg/kg, 6 hr after last i.p. injection, BPA 900 or NiTCP 160 μg/gbw, median (range)
Method: (§2) Female BALB/c mice (Taconic Farms, Germantown, N.Y.) (20-25 g) were implanted with either KHJJ or EMT-6 tumors. For KHJJ tumors, 1-3 mm^3 tumor fragments were implanted subcutaneously (s.c.) in the dorsal thorax of each mouse using an 18-gauge trocar. For EMT-6 tumors, 2.5×10^5 cells were implanted similarly using a 27-gauge needle. EMT-6 tumor cells were grown alternately in vivo and in vitro. Single-cell suspensions were prepared from mouse-grown tumors by trypsinization. These were grown in cell culture for several passages and then were frozen in 10% DMSO and stored in liquid nitrogen. Prior to implantation in mice, the cells were thawed and grown in tissue culture in Alpha-MEM with 10% FBS for several passages.
(§3) Under deep halothane anesthesia leading to euthanasia, right ventricular blood was collected in Microtainer (Becton-Dickinson, Rutherford, N.J.) tubes containing EDTA for hematological analyses and boron assays of whole blood and in Microtainer™ tubes containing lithium heparin for chemical analyses and enzyme assays of blood plasma. Tumor, brain, fat, muscle, and liver tissues were sampled at necropsy for boron analyses.
(§4) Direct current plasma-atomic emission spectroscopy [DCP-AES] (ARL/Fisons Model SS-7) was used (detection limit: 0.1 μg/ml). Samples (50-130 mg) were digested at 60° C. with sulfuric acid:nitric acid (1:1). Triton X-100 and water were added to give final concentrations of ≈50 mg tissue/ml, 15% total acid v/v and 5% Triton X-100 v/v. Fat and liver tissues were assayed for ^10 B by prompt-gamma spectroscopy (Fairchild, et al., 1986). The prompt-gamma measurements were multiplied by 5.0 to give the total boron concentrations due to the use of boron of natural isotope abundance in the syntheses of all boronated porphyrins reported.
(§5) Seven mice having KHJJ mammary carcinomas were given one intraperitoneal (i.p.) injection of 900 μg/g body weight of the boron compound presently used for BNCT of malignant brain tumors, p-boronophenylalanine (BPA) complexed with fructose. BPA was prepared in accordance with procedure described in Coderre, et al., 1996 incorporated herein by reference in its entirety as if set forth in full.
(§6) Mice were euthanized during the collection of blood while under Halothane anesthesia. At necropsy, the apparent states of structural integrity, consistency, color or abnormality, if any, of tissues were observed and tumor, brain and liver tissues were collected from each mouse for boron analysis.
(§7) Eight mice having KHJJ mammary carcinomas were injected with the NiTCP solution in the amount of 160 μg NiTCP/g body weight (36 μgB/g body weight) in six i.p. injections over 20 hours.
(§8) Six hours after the mice were last injected with NiTCP, mice were euthanized during the collection of blood while under Halothane anesthesia and right ventricular blood was collected from each mouse for hematological and chemical analysis without pooling the samples. At necropsy, the apparent states of structural integrity, consistency, color, or abnormality, if any, of tissues were observed and tumor, brain and liver tissues were collected from each mouse for boron analysis without pooling the samples.
(§9) Seven mice having KHJJ mammary carcinomas were injected with the NiTCP solution in the amount of 160 μg NiTCP/g body weight (36 μgB/g body weight) in six i.p. injections over 20 hours.
as §8, with “Sixteen hours” for “Six hours”, “were” for “were last”, “boron analysis. […]” for “boron analysis without pooling the samples.”

KHJJ mammary carcinomas = test: as above; type: in vivo, BALB/c mice; settings: 6 hr after last i.p. injection; BPA 900 or NiTCP 160 μg/gbw; median (range); 900 mg/kg, 360 min
Method: as §2, §3, §4, §5, §6, §7, §8, §9
as §8, with “Sixteen hours” for “Six hours”, “were” for “were last”, “boron analysis. […]” for “boron analysis without pooling the samples.”

[4] = Experiment IV: boron concentrations in tissues, mice bearing EMT-6 tumors (Table 10); type: in vivo, BALB/c mice; settings: mouse, ip, 837 mg/kg, BPA fructose complex, 6 hr, tumor model not restated
Method: (§10) Lipophilic porphyrins 1, 2, 4, 5, and 6 were injected as emulsions in either 3% or 9% CRM and either 6% or 18% PRG with saline as previously described in Example 2 above. Water soluble porphyrins 3 and 7 were dissolved in saline. BPA was solubilized as a fructose complex.
(§11) Female BALB/c mice (from Taconic Farms, Germantown, N.Y.) (20-25 g) were implanted with either KHJJ or EMT-6 tumors according to the procedure described in Example 3A above.
as §3
(§12) In Experiment IV, samples of BPA (836 μg/gbw), CuTCP (160 μg/gbw) and a combination of both were tested in mice with EMT-6 tumors. BPA was given in a single i.p. injection and mice were euthanized 6 hours later. CuTCP was given in 5 i.p. injections over 28 hours and mice were euthanized 90 hrs after the last injection. The group receiving both CuTCP and BPA were injected with CuTCP five times over 28 hours as was the CuTCP-only group and then with a single i.p. injection of BPA 6 hours prior to euthanasia which was 90 hours after the last injection of CuTCP.
(§13) Hematological, chemical and enzymatic tests were carried out as described in Example 3 above. Nonparametric statistical analyses were carried out using the Wilcoxon Two-Sample Test in accordance with procedures described in Slatkin, D.N., 1995. Boron analyses were conducted in accordance with the procedure described in Example 3 above. Fat and liver tissues were assayed for ^10 B by prompt-gamma spectroscopy as described in Fairchild, et al., 1986. These measurements were multiplied by 5.0 to give total boron concentrations due to the use of boron of natural isotope abundance in the syntheses of all boronated porphyrins reported.

EMT-6 tumors = test: as above; type: in vivo, BALB/c mice; settings: 90 hrs after last of 5 ip CuTCP (160 μg/gbw); BPA (837 μg/gbw) 1 ip 6 hr before euthanasia; 836 mg/kg
Method: as §10, §11, §3, §12, §13

[5] = clinical BNCT (Coderre, et al., 1997); cited from earlier work
9L gliosarcomas [6] = test system: 9L gliosarcomas; set-up: species or system Fischer 344 rats; settings: rat, in vivo, iv
Method: 2C. Preparation of CuTCP and CuTCP-H Solution for Rat Studies
(§14) CuTCP-H as prepared in Example 1D was formulated with 9% CRM and 18% PrG to form a solution to which saline was added dropwise to yield 3.34 mg/ml of CuTCP and […] CuTCP-H, respectively. The resulting total doses were 215 mg/kg body weight for CuTCP and 149 mg/kg body weight for CuTCP-H. These solutions were then utilized for toxicity and biodistribution experiments in rats.
as §4
Male Fischer 344 rats each bearing 4 subcutaneous 9L gliosarcomas were given 210-219 mg CuTCP/kg body wt by 48-h iv infusion. Tumor and blood were sampled at 0, 1, 2, and 3 days after the end of infusion for boron analyses and blood for toxicity. Rats were euthanized on day 3 and other organs were analyzed for boron uptake.

[7] = Overall ranking of boronated porphyrins for BNCT guided by biodistribution and toxicity tests in mice (Table 11)
Method: The higher the numerical value, the better the performance of that porphyrin for that property. […] Although VCDP was able to deliver therapeutic amounts of boron to tumor, such side effects such as thrombocytopenia, which was induced within 3 hours after injections, weight loss, and the altered hepatic enzymes were serious enough to rank VCDP considerably behind the TCP's and the TCP-H's (Miura et al., 1992). In addition, the 80-hour drug administration period and the 90-hour blood clearance period are of great inconvenience. Moreover, this 4-day difference between the VCDP and the TCP (or TCP-H) dose and clearance schedules would translate into a 4-day greater delay between initiation of drug administration and neutron irradiation which would allow greater tumor growth to occur.
[…]
biodistribution and toxicity tests in mice. An asterisk indicates

9L gliosarcomas [8] = test system: 9L gliosarcomas; set-up: species or system Fischer 344 rats; settings: rat, in vivo
Method: as §14, §4
CuTCP-H (146-152 mg/kg body weight) was given to four Fischer 344 rats each bearing four subcutaneous 9L gliosarcomas. A solution of 3.34 mg CuTCP-H/mL, in 9% CRM and 18% PrG, was given to rats by 48-hour i.v. infusion in a total volume of 9.6 mL.

Compound: Manganese Tetracarboranylphenylporphyrin [MnTCP]
- toxicity / thrombocytopenia, in words [1]: little if any difference in toxicity

Compound: N[C@@H](Cc1ccc(B(O)O)cc1)C(=O)O [BPA, p-boronophenylalanine]
- toxicity, in words [2]: undetectable, minimal, or negligible in every respect
- concentration at 6 h ([3]; blood, read-out: Boron Concentration: Blood): 4600 ng/g
- concentration at 6 h ([3]; brain, read-out: Boron Concentration: Brain): 7200 ng/g
- concentration at 6 h ([3]; tumor, read-out: Boron Concentration: Tumor): 13800 ng/g
- Boron Concentration: Tumor (KHJJ mammary carcinomas): ≈ 14 μg B/g
- concentration at 6 h ([4]; blood, read-out: Blood boron): 2000 ng/g
- concentration at 6 h ([4]; brain, read-out: Brain boron, median): 8000 ng/g
- Boron concentration, Blood (EMT-6 tumors): 2.0 (1.2-3.6) μg B/g
- Boron concentration, Brain (EMT-6 tumors): 8.1 (5.9-9.6) μg B/g
- Boron concentration, Fat (EMT-6 tumors): 0.4 (0-1.8) μg B/g
- Boron concentration, Liver (EMT-6 tumors): 2.1 (0.1-3.1) μg B/g
- Boron concentration, Muscle (EMT-6 tumors): 3.8 (2.1-7.9) μg B/g
- Boron concentration, Tumor (EMT-6 tumors): 5.4 (3.5-23) μg B/g and 5.4 μg B/g
- brain and blood boron concentrations relative to tumor [5]: approximately one-third that found in tumor
- chemical toxicity, in words [5]: not eliciting any chemical toxicity

Compound: Copper Tetracarboranylphenylporphyrin [CuTCP]
- toxicity / thrombocytopenia, in words [1]: little if any difference in toxicity
- time to rapid and almost total clearance of boron in blood (9L gliosarcomas [6]): ≤ 2 days
- Boron concentration in tumor (9L gliosarcomas [6]; 215 mg/kg, 0 h): 54-68 μg B/g
- Boron concentration in tumor (9L gliosarcomas [6]; 215 mg/kg, 48 h): 38-69 μg B/g
- boron in cerebellum (9L gliosarcomas [6]; 215 mg/kg, 48 h): 1.5 μg B/g
- boron in cerebrum (9L gliosarcomas [6]; 215 mg/kg, 48 h): 2.5 μg B/g
- median boron in blood (9L gliosarcomas [6]; 215 mg/kg, 48 h): 6 μg B/g
- median boron in tumor (9L gliosarcomas [6]; 215 mg/kg, 48 h): 55 μg B/g
- average boron concentration, cerebellum (9L gliosarcomas [6]; 215 mg/kg, 72 h): 1-2 μg B/g
- average boron concentration, cerebrum (9L gliosarcomas [6]; 215 mg/kg, 72 h): 1-2 μg B/g
- Drug tolerance/deliverable boron (ranking) [7]: 4
- Lipophilicity (ranking) [7]: 2
- Tumor uptake (normalized) (ranking) [7]: 3
- Tumor:Blood (ranking) [7]: 3

Compound: Copper Tetracarboranylporphyrin Hydride [CuTCP-H]
- tumor:blood ratio (boron) (9L gliosarcomas [8]; 2880 min): 16:1
- Boron concentration, Blood (9L gliosarcomas [8]; iv, 149 mg/kg, 0 h): 183 (160-205) μg B/g
- Boron concentration, Tumor (9L gliosarcomas [8]; iv, 149 mg/kg, 0 h): 45 (23-51) μg B/g
- Boron concentration, Blood (9L gliosarcomas [8]; iv, 149 mg/kg, 24 h): 62 (56-65) μg B/g
- Boron concentration, Tumor (9L gliosarcomas [8]; iv, 149 mg/kg, 24 h): 46 (35-52) μg B/g
- Boron concentration, Blood (9L gliosarcomas [8]; iv, 149 mg/kg, 120 h): 0.6 (0.3-0.7) μg B/g
- Boron concentration, Cerebellum (9L gliosarcomas [8]; iv, 149 mg/kg, 120 h): 2.8 (2.1-6.2) μg B/g
- Boron concentration, Cerebrum (9L gliosarcomas [8]; iv, 149 mg/kg, 120 h): 4.9 (2.2-6.9) μg B/g
- Boron concentration, Liver (9L gliosarcomas [8]; iv, 149 mg/kg, 120 h): 345 (336-408) μg B/g
- Boron concentration, Tumor (9L gliosarcomas [8]; iv, 149 mg/kg, 120 h): 31 (23-55) μg B/g
